Entries after “also recorded” stand apart in the source; their conditions may differ.
Assays:
[1] = test system: rat TRPV4 mutations (R746C, R746G, R746D, K754G, R757G, R774G, and W776G); assay: Ca2+ imaging in HEK cells transfected with rat TRPV4 mutations; assay type: cell-based; conditions: except a reduction with mutation W776G
Procedure: (§1) Cell culture and transfection. HEK293 cells (ATCC® CRL-1573) were cultured on poly-D-lysine coated coverslips in 24-well plate containing DMEM media with high-Glucose (Gibco, Gaithersburg, MD) supplemented with 10% fetal bovine serum (FBS, HyClone Laboratories, Logan, UT) and 100 U/mL of penicillin/streptomycin (Gibco, Gaithersburg, MD). Cell cultures were maintained with 5% of CO2 in a humidified incubator at 37° C. HEK cells were transfected with rat or human wild type or mutant TRPV4 channels with EGFP or YFP coupled to their C-termini (1.5 μg of plasmid for excised patch clamp and Ca^2+ imaging and 200 ng for single-channel experiments). The jetPEI™ Polyplus transfection reagent (Polyplus Transfection, New York, NY) for electrophysiology or Lipofectamine™ 2000 Reagent (Invitrogen, Waltham, MA) for Ca^2+ imaging were used for transfections per manufacturer's instructions as previously described (Chen et al. Pain 2014, 155, 2662-2672; Morales-Lazaro et al. Nat. Commun. 2016, 7, 13092). To investigate whether miR-146a can directly activate TRPV1 channels or indirectly via TLRs, HEK293 cells were transfected with rTRPV1 or co-transfected rTRPV1 with rTLR7, rTLR2, or rTLR6 (Addgene, Watertown, MA) for Ca^2+ imaging assay. Control cells were transfected with GFP or YFP.
Site-directed mutagenesis of TRPV4 channels. TRPV4 sequences of multiple species were aligned using Clustal Omega program. Site-directed mutagenesis to generate point mutations in rat and human TRPV4 channels were carried out using Phusion DNA polymerase enzyme (Salazar et al. Nat. Struct. Mol. Biol. 2009, 16, 704-710; Rosenbaum et al. Neuron 2002, 33, 703-713; Hsieh et al. Methods Mol. Biol. 2013, 978, 173-186), with final sequencing to check for presence of the induced mutation. We introduced the following mutations into the rTRPV4 or hTRPV4 channel: R746C, R746G, R746D, K754G, R757G, R774G, and W776G.
(§2) In vitro and ex vivo Ca^2+ imaging. […] Ratios of emissions were acquired at 0.5 Hz. ΔR/R0 was determined as the fraction of the increase of a given ratio over baseline ratio divided by baseline ratio. […]

[2] = biological target: T1, hTRPV4 (Homo sapiens, UniProt Q9HBA0); assay: Single-channel recordings of hTRPV4 in HEK293 cells; assay type: biochemical; conditions: +60 mV; 100 nM GSK101 or 5 μM LPC 18:1
T1 construct: expressed in transfected cells; host or cells: HEK293 (ATCC CRL-1573)
T1 sequence (Q9HBA0 whole entry): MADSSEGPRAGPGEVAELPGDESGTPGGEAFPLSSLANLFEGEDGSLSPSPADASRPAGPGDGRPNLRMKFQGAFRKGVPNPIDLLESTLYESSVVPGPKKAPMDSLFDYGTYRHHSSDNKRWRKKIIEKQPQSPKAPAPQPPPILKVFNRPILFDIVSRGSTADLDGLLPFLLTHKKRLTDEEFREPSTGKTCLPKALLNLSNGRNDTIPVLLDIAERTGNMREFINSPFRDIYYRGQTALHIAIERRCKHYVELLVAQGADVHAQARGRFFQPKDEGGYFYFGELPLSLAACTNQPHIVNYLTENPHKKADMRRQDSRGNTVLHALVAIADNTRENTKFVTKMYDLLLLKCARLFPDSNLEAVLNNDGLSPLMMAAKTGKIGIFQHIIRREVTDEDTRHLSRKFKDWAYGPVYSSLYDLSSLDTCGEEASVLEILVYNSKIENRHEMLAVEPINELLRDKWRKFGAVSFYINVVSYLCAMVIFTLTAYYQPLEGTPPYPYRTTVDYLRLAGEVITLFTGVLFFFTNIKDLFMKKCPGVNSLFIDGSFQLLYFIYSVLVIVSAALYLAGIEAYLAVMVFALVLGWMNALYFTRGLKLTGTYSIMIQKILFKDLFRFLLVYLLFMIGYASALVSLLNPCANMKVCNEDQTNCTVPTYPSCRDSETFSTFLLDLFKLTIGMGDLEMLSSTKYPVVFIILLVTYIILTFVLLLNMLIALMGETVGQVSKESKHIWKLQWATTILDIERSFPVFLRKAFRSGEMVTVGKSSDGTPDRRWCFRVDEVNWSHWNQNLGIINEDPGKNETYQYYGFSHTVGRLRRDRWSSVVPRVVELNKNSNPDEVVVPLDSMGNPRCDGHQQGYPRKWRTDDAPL
Procedure: as §1
For single-channel recordings, Borosilicate glass […]) pipettes were used. Recordings were obtained at +60 mV by acquiring several traces of 1-3 s duration. The effect of GSK1016790A or LPC 18:1 on single TRPV4 channels was studied in inside-out. Currents were filtered at 2 kHz and sampled at 5 kHz. […] Single-channel openings and closures were identified with the half-threshold crossing technique (Morales-Lazaro et al. Nat. Commun. 2016, 7, 13092). The channel open probability was calculated as the sum of the total open time divided by the sweep duration. Dwell times and amplitude histograms in the closed or open states were collected in logarithmic time histograms according to the Sine-Sigworth transformation (Sigworth et al. Biophys. J. 1987, 52, 1047-1054). Sums of three or two exponential components were fitted to histograms using a least-squares algorithm.

[3] = test system: human TRPV4 mutations (R746C, R746G, R746D, K754G, R757G, R774G, and W776G); assay: Ca2+ imaging in HEK cells transfected with human TRPV4 mutations; assay type: cell-based; conditions: except a reduction with mutation W776G
Procedure: as §1, with “To investigate whether miR-146a can directly activate TRPV1 channels or indirectly via TLRs, HEK293 cells were transfected with rTRPV1 or co-transfected rTRPV1 with rTLR7, rTLR2, or rTLR6 (Addgene, Watertown, MA) for Ca^2+ imaging assay. Control cells were transfected with GFP or YFP.” left out
as §2

[4] = cited from earlier work
[5] = test system: mice; assay: Effect of inhibitor pretreatment on LPA-, LPC- or miR-146a-induced scratching behavior; assay type: in vivo, mouse; conditions: i.t. 200 ng/5 μL, about 2 weeks before
Procedure: Behavioral assessment. Mice were shaved at the dorsal neck 1 d before experiments. […] After injections, mice were immediately placed back to the chamber, and the scratching behavior was recorded by a Panasonic video camera for 30 min. Hind limb scratching behavior directed toward the injected area at the nape of neck was observed. One scratch is defined as a lifting of the hind limb toward the injection site and then a replacing of the limb back to the floor, regardless of how many scratching strokes take place between those two movements. Behavioral analysis was conducted by observers blinded to genotype.
Control animals received the same volume of vehicles.
Lumbar puncture was made with a 30G-needle and drugs at 5 μL of volume were delivered. Scratching behavior assay was started approximately 2 weeks after resiniferatoxin treatment.

[6] = test system: TRPV1+ central nerve terminals; assay: Ablation of TRPV1+ central nerve terminals in spinal cord (TRPV1 immunolabeling); assay type: in vivo, mouse; conditions: i.t. 200 ng/5 μL
Procedure: To examine whether TRPV1-expressing sensory neurons contribute to LPC- or miR-146α-induced itch, we ablated the central terminals of TRPV1-expressing neurons by i.t. injection of 200 ng resiniferatoxin (RTX) into the L4/L5 subarachnoid space (Mishra et al. Mol. Cell. Neurosci. 2010, 43, 157-163). Lumbar puncture was made with a 30G-needle and drugs at 5 μL of volume were delivered. Scratching behavior assay was started approximately 2 weeks after resiniferatoxin treatment.
Immunohistochemistry and morphometry analysis. Routine procedures were followed (Chen et al. Pain 2014, 155, 2662-2672). Briefly, mice were perfused transcardially with 0.01 M PBS followed by ice-cold 4% paraformaldehyde (PFA, Sigma, St. Louis, MO). Cervical spinal cord, TGs and cervical DRGs, and dorsal neck skin were dissected and post-fixed in 4% PFA overnight, cryoprotected in 20% sucrose (48 h) and sectioned on a cryostat (30 μm for spinal cord, 12 μm for TG and DRG and neck skin). […] 4-6 sections were analyzed per mouse. […] The cutoff density threshold was determined by averaging the density of three neurons per section that were judged to be minimally positive, using ImageJ software. […] Positive cells were expressed as % of total counted TG neurons. The labeling density of TRPV1 in spinal cord was measured using the integrated density algorithm of Image J.

CC(C)C[C@H](NC(=O)c1cc2ccccc2s1)C(=O)N1CCN(C(=O)[C@H](CO)NS(=O)(=O)c2ccc(Cl)cc2Cl)CC1 [GSK101]
10 nM GSK101-induced Ca2+ signal in TRPV4 mutants vs rTRPV4 [1]: remained largely active; also recorded: not significantly disrupted
open level (single-channel) amplitude [2]: 6.45±0.55 pA
open probability (Po) [2]: 0.85±0.08
single channel conductance (gi) [2]: 107 pS
10 nM GSK101-induced Ca2+ signal in TRPV4 mutants vs hTRPV4 [3]: not significantly disrupted
lethality in-vivo [4]: lethal

C=C(C)[C@]12C[C@@H](C)[C@@]34O[C@](Cc5ccccc5)(O[C@@H]1[C@@H]3C=C(COC(=O)Cc1ccc(O)c(OC)c1)C[C@]1(O)C(=O)C(C)=C[C@@H]41)O2 [resiniferatoxin]
effect on LPC-induced itch after ablation of TRPV1-expressing terminals [5]: significantly reduced
effect on miR-146a-induced itch after ablation of TRPV1-expressing terminals [5]: significant reduction; also recorded: significantly reduced
TRPV1+ central nerve terminals in superficial layers of the spinal cord [6]: Selective ablation; also recorded: Elimination

Reference: US20240002846A1, “COMPOSITIONS AND METHODS FOR THE DIAGNOSIS AND TREATMENT OF ITCH” (Duke University, priority 2020, published 2024)
